The source of these data is article PMC4152863 (Regulatory peptides, 2013).

Test [1] deals with T1, novel, non-AT1, non-AT2 angiotensin binding site (neurolysin) (Rattus norvegicus, UniProt P42676). Conditions: cited from earlier work.
In test [2] the target is T1, novel, non-AT1, non-AT2 angiotensin binding site (neurolysin). Description: Unmasking of specific 125I-SI Ang II binding in membranes.
Test [3] has the same target. Kind of test: Inhibition or enhancement of PCMB-unmasked 125I-SI Ang II binding in membranes.
The next test concerns neurolysin. Conditions: cited from earlier work.
For a further test, the target named is liver AT1 receptors (Rattus norvegicus, UniProt P25095). Type of test: binding. Particulars: for Kd of 125I-SI Ang II binding: liver.
The test system of a further test is Sprague-Dawley rats. Kind of test: Drinking test after icv Ang II with or without HgCl2. The test is classed as in vivo, rat. Particulars: ICV 200 pmoles HgCl2 with 100 pmoles Ang II; water intake over 30 min.
A further test concerns thimet oligopeptidase. Conditions: cited from earlier work.
Where [4] appears, read: brain and testis, ~100 μM primary screening or range of concentrations.
Where [5] appears, read: 100 μM test compound, 100 μM PCMB, brain and testis.

Where “and” joins values, the source holds several entries; their conditions need not be identical. Identical values can stand only once. Entries after “also recorded” stand apart in the source; their conditions may differ. Like-named read-outs stand apart in the source and are kept apart here. A value given as a limit tells only on which side of the number the result lay.

T1 sequence (P42676 38-704): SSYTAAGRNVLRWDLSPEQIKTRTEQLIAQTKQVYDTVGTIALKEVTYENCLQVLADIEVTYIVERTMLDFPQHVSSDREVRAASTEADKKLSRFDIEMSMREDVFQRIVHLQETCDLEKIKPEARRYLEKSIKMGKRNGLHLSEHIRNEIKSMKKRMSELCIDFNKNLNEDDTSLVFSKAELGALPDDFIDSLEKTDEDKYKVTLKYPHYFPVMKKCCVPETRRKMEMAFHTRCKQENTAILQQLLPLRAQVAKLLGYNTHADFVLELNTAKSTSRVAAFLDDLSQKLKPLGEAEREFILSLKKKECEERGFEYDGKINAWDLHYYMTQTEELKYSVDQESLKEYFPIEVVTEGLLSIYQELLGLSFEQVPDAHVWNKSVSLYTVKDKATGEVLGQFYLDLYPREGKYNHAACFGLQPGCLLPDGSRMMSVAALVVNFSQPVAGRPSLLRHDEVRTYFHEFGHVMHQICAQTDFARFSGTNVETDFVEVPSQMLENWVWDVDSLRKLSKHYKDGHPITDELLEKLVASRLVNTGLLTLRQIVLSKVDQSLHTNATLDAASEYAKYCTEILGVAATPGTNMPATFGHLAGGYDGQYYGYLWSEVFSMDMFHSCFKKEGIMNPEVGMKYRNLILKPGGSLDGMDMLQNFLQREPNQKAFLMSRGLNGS
Sequence of liver AT1 receptors (P25095 whole entry): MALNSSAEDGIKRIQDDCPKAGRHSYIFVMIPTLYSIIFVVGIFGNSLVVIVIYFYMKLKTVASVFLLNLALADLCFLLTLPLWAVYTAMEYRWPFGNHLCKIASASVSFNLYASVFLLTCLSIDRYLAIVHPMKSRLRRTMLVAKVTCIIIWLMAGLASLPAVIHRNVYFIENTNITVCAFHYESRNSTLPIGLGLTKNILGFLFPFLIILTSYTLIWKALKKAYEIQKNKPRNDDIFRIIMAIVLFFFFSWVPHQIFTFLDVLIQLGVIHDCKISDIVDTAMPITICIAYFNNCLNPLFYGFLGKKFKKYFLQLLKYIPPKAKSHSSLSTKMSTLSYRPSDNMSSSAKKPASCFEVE

On to `OCCS` [2-mercaptoethanol, 2-mercaptoethanol], for which the “reversal of PCMB unmasking of Ang II binding (in words)” value in test [1] is on record as “reversed”.

On to `O=C(O)c1ccc(O)cc1` [4-hydroxybenzoic acid], for which, in test [2] (setting [4]), the “unmasking of specific 125I-SI Ang II binding in the absence of PCMB (in words)” value (“unmasking … of PCMB (in words)” for short) is “did not promote”.

For `O=C(O)c1cc[c]([Hg][OH])cc1` [4-hydroxymercuribenzoate, 4-hydroxymercuribenzoic acid], in test [3], the “inhibition of PCMB-unmasked 125I-SI Ang II binding, primary screening (in words)” value (from here on “inhibition … primary screening (in words)”) is recorded as “moderately inhibited”. Also, the “unmasking … of PCMB (in words)” value in test [2] is “unmasked non-AT1, non-AT2 binding independent of PCMB; also recorded: partial unmasking; also recorded: capable of fully unmasking”. Also, the “concentration for optimal (peak) unmasking of 125I-SI Ang II binding” value in test [2] (brain and testis) is ~ 300 μM; in test [2] (brain and testis, listed as 4-OH Hg bza), 300 µM.

On to `O=[N+]([O-])[O-].[Ag+]` [AgNO3, silver nitrate], for which, in test [3], the “inhibition … primary screening (in words)” value was “significantly reduced; also recorded: substantially inhibited”. Also, the “IC50's for inhibition of 125I-SI Ang II binding” value (“IC50's for inhibition” below) in test [3] (brain and testis, 100 μM PCMB) fell in the range of 1 to 20 µM. Also, the “IC50 for inhibition of 125I-SI Ang II binding” value (“IC50 for inhibition” for short) came to 1.77 µM in test [3] (brain, 100 μM PCMB) and 21.3 µM in test [3] (testis, 100 μM PCMB).

As to `O[C@@H](CS)[C@@H](O)CS` [DTT], the “reversal of PCMB unmasking of Ang II binding (in words)” value in test [1] is “reversed”. In addition, the “inhibition of the enzymatic activity of neurolysin (in words)” value with neurolysin is recorded as “can be inhibited”.

Take `Cc1cc(-c2ccc(/N=N/c3ccc4c(S(=O)(=O)O)cc(S(=O)(=O)O)c(N)c4c3O)c(C)c2)ccc1/N=N/c1ccc2c(S(=O)(=O)O)cc(S(=O)(=O)O)c(N)c2c1O` [Evans blue]: the “effect on 125I-SI Ang II binding in the presence of PCMB (in words)” value in test [3] (100 μM, brain and testis) was “enhanced”. Moreover, the “Rmax for enhancement of specific 125I-SI Ang II binding in the presence of PCMB” value in test [3] (brain, 100 μM PCMB) is recorded as 163±56%; in test [3] (testis, 100 μM PCMB) it was 442±340%. Further, the “unmasking … of PCMB (in words)” value in test [2] (setting [4]) was “unable to unmask”.

In the case of `[Cl][Hg][Cl]` [HgCl2, mercuric chloride], the “inhibition … primary screening (in words)” value in test [3] is “significantly reduced; also recorded: substantially inhibited”. For the same compound, the “IC50's for inhibition” value in test [3] (brain and testis, 100 μM PCMB) lay within 1 to 20 µM. For the same compound, the “IC50 for inhibition” value in test [3] (brain, 100 μM PCMB) came out at 14.3 µM; in test [3] (testis, 100 μM PCMB) it was 11.0 µM. Besides, on liver AT1 receptors, the “Bmax of 125I-SI Ang II binding” value was 20.8±1.8 and 20.6±2.4 and 20.4±4.4. Besides, the “effect on 125I-SI Ang II binding to AT1 receptors (in words)” value at liver AT1 receptors was “lack of effect; also recorded: did not impair”. Further, the results for the “Kd of 125I-SI Ang II binding” value at liver AT1 receptors (10 μM HgCl2), on liver AT1 receptors (30 μM HgCl2) and on liver AT1 receptors (100 μM HgCl2) were 2.93±0.40, 2.41±0.46 and 3.15±1.1, respectively. Also, in the test on Sprague-Dawley rats, the “effect on dipsogenic response to Ang II (in words)” value was “lack of effect; also recorded: did not affect”.

In the case of `O=C(O)c1cc[c]([Hg][Cl])cc1` [PCMB, parachloromercuribenzoic acid], the “concentration for optimal (peak) unmasking of 125I-SI Ang II binding” value in test [2] (brain and testis) lay in the range of 100 to 300 µM. Also, the “unmasking of Ang II binding to thimet oligopeptidase (in words)” value with thimet oligopeptidase was “does not unmask”.

Regarding `O=[N+]([O-])[O-].[Na+]` [Sodium nitrate], the “inhibition … primary screening (in words)” value in test [3] is “did not show any inhibition”.

For the compound `NCCCNCCS` [WR-1065], in test [3] (setting [5]), the “inhibition … primary screening (in words)” value is “did not inhibit”.

On to `NCCCNCCSP(=O)(O)O` [amifostine], for which the “inhibition of PCMB unmasking of 125I-SI Ang II binding, primary screening” value (“inhibition of PCMB unmasking … primary screening” for short) in test [3] (setting [5]) was “more than 50%”. In addition, the “inhibition in secondary screening” value in test [3] (at or above 100 μM, 100 μM PCMB, data not shown) is below 50%.

With `NCCS` [cysteamine], the “inhibition of PCMB unmasking … primary screening” value in test [3] (setting [5]) is “more than 50%”. Also, the “IC50 for inhibition” value turned out to be 28.1 µM in test [3] (brain, 100 μM PCMB) and 138 µM in test [3] (testis, 100 μM PCMB).

With `OO` [hydrogen peroxide], in test [3], the “inhibition … primary screening (in words)” value is reported as “did not inhibit”.

With `[Cl][Mn][Cl]` [manganese chloride], the “unmasking … of PCMB (in words)” value in test [2] is “greater unmasking in testis compared to brain”.

Consider `COC([CH2][Hg+])CNC(=O)c1ccccc1OCC(=O)O.[OH-]` (stereo not shown) [mersalyl acid], for which, in test [3], the “inhibition … primary screening (in words)” value is recorded as “full inhibition”. Besides, the “inhibition of PCMB unmasking … primary screening” value in test [3] (setting [5]) is reported as “more than 50%”. The “IC50's for inhibition” value in test [3] (brain and testis, 100 μM PCMB) was 1 to 20 µM. The “IC50 for inhibition” value amounted to 1.10 µM in test [3] (brain, 100 μM PCMB) and 2.27 µM in test [3] (testis, 100 μM PCMB). Besides, in test [2] (brain and testis, absence of PCMB, data not shown), the “unmasking of 125I-SI Ang II binding at concentrations up to 1 mM (in words)” value is reported as “no ability to unmask; also recorded: did not unmask”.
